Measurements taken from patent publication US20030186845A1, “Compositions for preventing urinary calculus” (priority 2000, published 2003).

Columns and labels:
[1] = test system: male rats; assay: Calculus prevention effect by DTPA (repeated intravenous administration, 2 weeks, two lots); format: in vivo; details: for Urinary occult blood: occurrences/inspections
Method: Toxicity studies by repeated intravenous administration were conducted on male rats for 2 weeks using, as a specimen, R-CHI3-DTPA-Gd to which DTPA was added. In this test, two lots (hereinafter called lot #1 and lot #2) of R-CHI3-DTPA-Gd were provided, and the following administered groups were set up. […] As control groups, were set up a group that was administered with a physiological saline and a group that was free from a chelating agent (i.e., administered with […] of lot (1) only). Except the physiological saline-administered group, the dose as R-CHI3-DTPA-Gd was 0.33 mmol/kg.

[2] = test system: male rats; assay: Calculus prevention effect by chelating agents (repeated intravenous administration, 2 weeks); format: in vivo; details: for Calculi / Hyperplasia of vesical transitional epithelium / Urinary occult blood: mixed with R-CHI3-DTPA-Gd 0.33 mmol/kg i.v.; for Calculi / Hyperplasia of vesical transitional epithelium / Effect of inhibiting production of calculi: male rats; for Urinary occult blood: occurrences/total daily inspections for 14 days; for Effect of inhibiting production of calculi: specimens of R-CHI3-DTPA-Gd mixed with chelating agent, summary in words
Method: To R-CHI3-DTPA-Gd, was added diethylenetriaminepentaacetic acid (DTPA), its calcium complex, or calcium complex of ethylenediaminetetraacetic acid (EDTA). Using them as specimens, toxicity studies by repeated intravenous administration were conducted on male rats for 2 weeks. A group, which is called DTPA-10 group, was administered with a specimen of R-CHI3-DTPA-Gd mixed with DTPA in an amount equivalent to 10 mmol per 500 mmol of the DTPA-Gd portion of the R-CHI3-DTPA-Gd; a group, which is called DTPA-Ca-10 group, was administered with a specimen mixed with calcium complex of DTPA in an amount equivalent to 10 mmol; a group, which is called EDTA-Ca-1 group, was administered with a specimen mixed with calcium complex of EDTA in an amount equivalent 1 mmol; and a group, which is called EDTA-Ca-10 group, was administered with a specimen mixed with calcium complex of EDTA in an amount equivalent to 10 mmol. DTPA and others were mixed with R-CHI3-DTPA-Gd immediately before administration. As control groups, were set up a group that was administered with a physiological saline and a group that was free from a chelating agent (i.e., administered with R-CHI3-DTPA-Gd only). Except the physiological saline-administered group, the dose as R-CHI3-DTPA-Gd was 0.33 mmol/kg.
(The chelating agent-free group is estimated to include individuals that discharged calculi from their urinary bladders, judging from the hyperplasia of vesical transitional epithelium and the frequency of urinary occult blood.)

[3] = DTPA 1 mmol per 500 mmol DTPA-Gd portion, R-CHI3-DTPA-Gd lot #1, 0.33 mmol/kg i.v.
[4] = DTPA 1 mmol per 500 mmol DTPA-Gd portion, R-CHI3-DTPA-Gd lot #2, 0.33 mmol/kg i.v.
[5] = DTPA 1.3 mmol per 500 mmol DTPA-Gd portion, R-CHI3-DTPA-Gd lot #2, 0.33 mmol/kg i.v.
[6] = DTPA 3 mmol per 500 mmol DTPA-Gd portion, R-CHI3-DTPA-Gd lot #1, 0.33 mmol/kg i.v.
[7] = DTPA 10 mmol per 500 mmol DTPA-Gd portion, R-CHI3-DTPA-Gd lot #2, 0.33 mmol/kg i.v.
[8] = chelating agent 10 mmol per 500 mmol DTPA-Gd portion
[9] = chelating agent 1 mmol per 500 mmol DTPA-Gd portion

## O=C(O)CN(CCN(CC(=O)O)CC(=O)O)CCN(CC(=O)O)CC(=O)O [DTPA, diethylenetriaminepentaacetic acid]
[1]; [3]
  Calculi: 5/10
  Hyperplasia of vesical transitional epithelium: 7/10
  Urinary occult blood: 24/140
[1]; [4]
  Calculi: 5/10
  Hyperplasia of vesical transitional epithelium: 6/10
  Urinary occult blood: 27/140
[1]; [5]
  Calculi: 5/10
  Hyperplasia of vesical transitional epithelium: 7/10
  Urinary occult blood: 26/140
[1]; [6]
  Calculi: 5/10
  Hyperplasia of vesical transitional epithelium: 5/10
  Urinary occult blood: 17/140
[1]; [7]
  Calculi: 3/10
  Hyperplasia of vesical transitional epithelium: 4/10
  Urinary occult blood: 19/140
[2]; [8]
  Calculi: 0/10
  Hyperplasia of vesical transitional epithelium: 0/10
  Urinary occult blood: 8/140
[2]
  Effect of inhibiting production of calculi: significant effect

## O=C([O-])CN(CCN(CCN(CC(=O)[O-])CC(=O)O)CC(=O)O)CC(=O)O.[Ca+2] [DTPA-Ca]
[2]; [8]
  Calculi: 0/10
  Hyperplasia of vesical transitional epithelium: 0/10
  Urinary occult blood: 3/140
[2]
  Effect of inhibiting production of calculi: significant effect

## O=C([O-])CN(CCN(CC(=O)[O-])CC(=O)O)CC(=O)O.[Ca+2] [EDTA-Ca]
[2]; [9]
  Calculi: 4/10
  Hyperplasia of vesical transitional epithelium: 2/10
  Urinary occult blood: 17/140
[2]; [8]
  Calculi: 1/10
  Hyperplasia of vesical transitional epithelium: 1/10
  Urinary occult blood: 6/140
[2]
  Effect of inhibiting production of calculi: week effect
